According to PMC8333062, “Chemical tools for epichaperome-mediated interactome dysfunctions of the central nervous system” (Nature Communications, 2021):

System: MDA-MB-468 cells
Experiment: Cell viability, ATP levels 72 h
Type: cell-based, human
Details: control MDA-MB-468 of Fig. 6f; mean

CC(C)(C)CNCCn1c(Sc2cc3c(cc2I)OCO3)nc2c(N)ncnc21 [Compound 85]
%Survival of cells at day 0 (ATP levels): -90%
